{
  "source": "patent US5281619A",
  "about": "“Therapy for diabetic complications” (Eli Lilly and Company, priority 1993, dated 1994)",
  "key": {"[1]": {"system": "Glucose-Induced Vascular Dysfunction in Normal Rats", "assay": "Glucose-induced vascular dysfunction in rat granulation tissue chamber model (permeability and blood flow)", "type": "in vivo", "details": "twice daily for 7 days, 30-35 mM glucose", "protocol": "Representative compounds were evaluated in situ for their ability to block the increase in blood flow and permeability induced by high glucose in a rat tissue granulation tissue chamber model. In this model circles of skin were removed from the backs of normal rats and stainless steel screw-cap chambers were mounted. New granulation tissue formed within the chambers. Addition of 30-35 mM glucose (0.5 ml) twice daily to the chambers for 7 days induced a vascular dysfunction similar to that of diabetes--that is there was an increase in blood vessel permeability and an increase in blood flow. Blood flow was measured through the use of radiolabeled microspheres, and permeability was quantified using a dual label technique with iodinated albumin (^125 I/^131 I). Details of the model can be found in Tilton, et al., Diabetes38: 1258-1270 (1989). and Williamson, et al., J. Clin. Invest. 85: 1167-1172 (1990).\nRepresentative compounds were dissolved in DMSO and diluted in a balanced salt solution to achieve a final concentration of 20 or 50 μM. The granulation chamber tissue was treated twice daily for 7 days to determine their effects on glucose-induced vascular dysfunction. Addition of 30-35 mM glucose to the granulation chamber induced a vascular dysfunction characterized by increased vessel permeability and increased blood flow."}, "[2]": {"system": "vasculature in streptozotocin-diabetic rats", "assay": "Microvascular dysfunction associated with streptozotocin-induced diabetes in rats (permeability and blood flow)", "type": "in vivo, rat", "details": "0.1% in diet, 4 to 7-week period", "protocol": "Representative compounds were further evaluated for their ability to block the microvascular dysfunction associated with streptozotocin-induced diabetes. Rats were made diabetic with an injection of streptozotocin, and the rats were feed ad libitum with a diet containing 0.1% of a representative compound. Blood flow was measured through the use of radiolabeled microspheres while permeability was quantified using a dual label technique with iodinated albumin (^125 I/^131 I). Details of the model can be found in Tilton et al., Diabetes38: 1258-1270 (1989), and Williamson et al., J. Clin. Invest. 85: 1167-1172 (1990).\nBlood flow also was elevated on induction of diabetes in these tissues. In contrast, vascular function was not affected in the brain or muscle."}, "[3]": {"system": "bovine retinal capillary endothelial cells", "assay": "Inhibition of phorbol ester-induced endothelial cell activation, plasminogen activator (PA) activity in cell lysates", "type": "cell-based", "details": "Bos taurus, 4-β PDBu (50 nM) activated cells, 48 hours", "description": "Retinal capillary endothelial cell cultures were initiated from bovine eyes using a modification of the procedure of Buzney et al., Investigative Ophthalmology and Visual Sciences, 24: 470-480 (1983). Bovine eyes were transported on ice from a local abattoir. Extraocular muscle was trimmed from the eye, and the eye bisected posterior to the ora serrata. The vitreous and anterior portion of the eye were discarded, and the neuro-retina was gently dissected from the posterior eyecup. The retinas from 20 cattle were pooled and homogenized (5 strokes of a Teflon/glass homogenizer) in Hank's saline. The homogenate was passed through a 350μ filter to remove large debris and a 210μ filter to remove large vessels. The microvessels were trapped on a 85μ filter. The microvessels were resuspended in Hank's saline and digested with 7.5 mg/ml bacterial collagenase (Boeringher Mannheim, Indianapolis) Hank's saline for 1 hour at 37° C. […]\n(§1) The activation of bovine retinal capillary endothelial cells was monitored through alterations in cellular plasminogen activator (PA) activity in the cell lysates. Plasminogen activator activity was determined in a 50 μl aliquot of cell lysate using the synthetic substrate H-D-valyl-L-leucyl-lysine-p-nitroaniline dihydrochloride (Kabi)."}, "[4]": {"system": "bovine retinal capillary endothelial cells", "assay": "Activation of bovine retinal capillary endothelial cells by phorbol esters (PA activity, cell number)", "type": "cell-based", "details": "for increase in endothelial cell activation (in words): phorbol esters known to activate PKC vs. 4-α analogues", "description": "Retinal capillary endothelial cell cultures were initiated from bovine eyes using a modification of the procedure of Buzney et al., Investigative Ophthalmology and Visual Sciences, 24: 470-480 (1983). Bovine eyes were transported on ice from a local abattoir. Extraocular muscle was trimmed from the eye, and the eye bisected posterior to the ora serrata. The vitreous and anterior portion of the eye were discarded, and the neuro-retina was gently dissected from the posterior eyecup. The retinas from 20 cattle were pooled and homogenized (5 strokes of a Teflon/glass homogenizer) in Hank's saline. The homogenate was passed through a 350μ filter to remove large debris and a 210μ filter to remove large vessels. The microvessels were trapped on a 85μ filter. The microvessels were resuspended in Hank's saline and digested with 7.5 mg/ml bacterial collagenase (Boeringher Mannheim, Indianapolis) Hank's saline for 1 hour at 37° C. The cells were pelleted by centrifugation (100 xg, 10 min), resuspended in 5 ml Endothelial Growth Media (EGM, Clonetics) and seeded in a gelatin-coated T-25 flask. After 24 hours the cells were trypsinized and replated in a gelatin coated T225. At 7 days and again at 14 days the cultures were labeled with acetylated lipoproteins labeled with the fluorescent probe (1,1'-dioctadecyl-3,3,3,3,-tetramethyl-indocarbocyanine perchlorate). The endothelial cells were separated from contaminating cell types using a fluorescent cell sorter as described in Voyta et al., J. Cell Biology, 99: 2034-2040 (1984).\nRetinal capillary endothelial cells were seeded into 96-well plates and grown to confluence (10^5 cells/well) in EGM containing 10% fetal bovine serum (FBS). The media was changed to Dubecco's Modified Eagle's Medium with 10% fetal bovine serum 24 hours prior to the assay. The cells were treated with 50 nM 4-β phorbol 12,13-dibutyrate (4-β PDBu) to activate PKC and produce the activated endothelial phenotype characteristic of the diabetic state. The activated cells were treated with a series of dilutions of the test compounds. The phorbol esters and the test compounds were dissolved in DMSO before adding to the culture media. The cultures were incubated at 37° C. for 48 hours. Following treatment, the cells were lysed with 25mM NH4 OH in 0.5% triton X-100.\nas §1\nDose-response curves generated for 4-β PDBu and 4-β PMA indicated […] of 50 nM and 5 nM respectively. Elevated PA activity was observed only after prolonged (at least 8 hours) stimulation with phorbol esters. The PA activity continued to increase in a time and dose dependent manner for up to 72 hours, but constant stimulation with phorbol ester was required to maintain endothelial cell activation."}},
  "note": "pIC50: −log10 of the molar value.",
  "data": [
    {"smiles": "N#CC1=C(N)Oc2c(ccc3ccccc23)C1c1cccc([N+](=O)[O-])c1", "note": "(stereo not shown) [Example 6, 2 Amino-4-(3-nitrophenyl)-4H-naphtho[1,2-b]pyran-3-carbonitrile]", "values": [
      {"measurement": "BSA Clearance", "setting": "[1]; 20 μM", "value": 179, "unit": "µg/g/min"},
      {"measurement": "Blood Flow", "setting": "[1]; 20 μM", "value": 0.184, "unit": "mL/g/min"},
      {"measurement": "BSA Clearance", "setting": "[1]; 50 μM", "value": 158, "unit": "µg/g/min"},
      {"measurement": "Blood Flow", "setting": "[1]; 50 μM", "value": 0.168, "unit": "mL/g/min"},
      {"measurement": "development of increased permeability and blood flow (in words)", "setting": "[2]", "value": "prevented the development of increased permeability and blood flow"},
      {"measurement": "Permeability, Aorta", "setting": "[2]; aorta, diabetic rats", "value": 99.00, "unit": "µg/g/min"},
      {"measurement": "Blood Flow, Brain", "setting": "[2]; brain, diabetic rats", "value": 0.88, "unit": "mL/min/g"},
      {"measurement": "Permeability, Brain", "setting": "[2]; brain, diabetic rats", "value": 19.00, "unit": "µg/g/min"},
      {"measurement": "Permeability, Muscle", "setting": "[2]; muscle, diabetic rats", "value": 63.00, "unit": "µg/g/min"},
      {"measurement": "Blood Flow, Nerve", "setting": "[2]; nerve, diabetic rats", "value": 0.05, "unit": "mL/min/g"},
      {"measurement": "Permeability, Nerve", "setting": "[2]; nerve, diabetic rats", "value": 63.00, "unit": "µg/g/min"},
      {"measurement": "Blood Flow, Retina", "setting": "[2]; retina, diabetic rats", "value": 0.40, "unit": "mL/min/g"},
      {"measurement": "Permeability, Retina", "setting": "[2]; retina, diabetic rats", "value": 59.00, "unit": "µg/g/min"},
      {"measurement": "pIC50", "setting": "[3]", "value": 7.60}
    ]},
    {"smiles": "CCCCCCCCCCCCCC(=O)OC1C(C)C2(O)C(C=C(CO)CC3(O)C(=O)C(C)=CC32)C2C(C)(C)C12OC(C)=O", "note": "(stereo not drawn) [4-β PMA]", "values": [
      {"measurement": "pIC50", "setting": "[4]; Bos taurus, Endothelial cell, dose-response curves for phorbol esters", "value": 8.30},
      {"measurement": "increase in endothelial cell activation (in words)", "setting": "[4]", "value": "increase in activation occurred"}
    ]},
    {"smiles": "CCCC(=O)OC1C(C)C2(O)C(C=C(CO)CC3(O)C(=O)C(C)=CC32)C2C(C)(C)C12OC(=O)CCC", "note": "(stereo not drawn) [4-β PDBu, 4-β phorbol 12,13-dibutyrate]", "values": [
      {"measurement": "increase in PA activity associated with the cell layer", "setting": "[4]; confluent cells, 48 hours", "value": 12, "unit": "fold"},
      {"measurement": "increase in PA released into the media", "setting": "[4]; confluent cells, 48 hours", "value": 12, "unit": "fold"},
      {"measurement": "increase in cell number", "setting": "[4]; confluent cells, 48 hours", "value": "two fold increase in cell number"},
      {"measurement": "increase in endothelial cell activation (in words)", "setting": "[4]", "value": "increase in activation occurred"}
    ]},
    {"smiles": "CCCCCCCCCCCCCC(=O)OC1C(C)C2(O)C(C=C(CO)CC3(O)C(=O)C(C)=CC32)C2C(C)(C)C12OC(C)=O", "note": "(stereo not drawn) [4-α PMA]", "values": [
      {"measurement": "increase in endothelial cell activation (in words)", "setting": "[4]", "value": "not"}
    ]},
    {"smiles": "N#CC1=C(N)Oc2c(ccc3ccccc23)C1c1ccccc1[N+](=O)[O-]", "note": "(stereo not shown) [Example 5, 2-Amino-4-(2-nitrophenyl)-4H-naphtho[1,2-b]pyran-3-carbonitrile]", "values": [
      {"measurement": "BSA Clearance", "setting": "[1]; 20 μM", "value": 163, "unit": "µg/g/min"},
      {"measurement": "Blood Flow", "setting": "[1]; 20 μM", "value": 0.231, "unit": "mL/g/min"},
      {"measurement": "pIC50", "setting": "[3]", "value": 6.30}
    ]},
    {"smiles": "CCCC(=O)OC1C(C)C2(O)C(C=C(CO)CC3(O)C(=O)C(C)=CC32)C2C(C)(C)C12OC(=O)CCC", "note": "(stereo not drawn) [4-α PDBu]", "values": [
      {"measurement": "increase in endothelial cell activation (in words)", "setting": "[4]", "value": "not"}
    ]}
  ]
}
